Test results reported in ChEMBL document CHEMBL1201862, “PubChem BioAssay data set” (2004).
Activity calls are given as the source filed them.

Tests used:
Cytochrome P450 2C19 = Cytochrome P450 2C19 (Homo sapiens, UniProt P33261); experiment: Cytochrome panel assay with activity outcomes. Panel member name: p450-cyp2c19 Compounds with AC50 equal or less than 10 uM are considered active; format: functional
[1] = Jurkat T cell cytotoxicity, dose response, cytotoxicity control for P. falciparum gametocyte viability project, luminescence (AID 1117277); format: functional, cell-based;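 also: potency reflects loss of cellular ATP meaning fewer viable cells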
Cytochrome P450 1A2 = biological target: T1, Cytochrome P450 1A2 (Homo sapiens, UniProt P05177);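 also: PubChem cytochrome P450 panel assay, CYP1A2 panel member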
T1 sequence (P05177 whole entry): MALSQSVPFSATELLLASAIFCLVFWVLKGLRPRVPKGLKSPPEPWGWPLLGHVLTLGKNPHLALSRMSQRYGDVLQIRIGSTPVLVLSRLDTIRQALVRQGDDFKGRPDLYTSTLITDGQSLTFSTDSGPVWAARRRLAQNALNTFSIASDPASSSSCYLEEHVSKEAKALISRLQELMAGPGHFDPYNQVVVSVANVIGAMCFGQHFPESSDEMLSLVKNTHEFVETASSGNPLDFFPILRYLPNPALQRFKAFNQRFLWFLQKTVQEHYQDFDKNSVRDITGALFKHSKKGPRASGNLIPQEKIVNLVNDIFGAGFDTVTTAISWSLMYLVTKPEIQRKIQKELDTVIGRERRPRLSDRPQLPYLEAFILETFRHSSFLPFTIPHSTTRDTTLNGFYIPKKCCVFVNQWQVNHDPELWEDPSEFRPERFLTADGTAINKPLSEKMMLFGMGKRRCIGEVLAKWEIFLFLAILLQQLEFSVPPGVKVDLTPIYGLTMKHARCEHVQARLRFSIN

[2] = P. falciparum late gametocyte killing, dose response, luminescence (AID 1117278); format: functional, cell-based;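 also: gametocytes exposed to compound for 24 hours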
Paired box protein Pax-8 = Paired box protein Pax-8 (Homo sapiens, UniProt Q06710); experiment: inhibitors of PAX8-driven TPO luciferase reporter, dose response, RMG-I cells, cherry-pick (AID 687027); format: functional, cell-based;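 also: luciferase reporter driven by Pax8 target thyroperoxidase promoter measured by SteadyGlo luminescence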
[3] = A549 cell cytotoxicity, dose response, cytotoxicity control, 24 h, CellTiter-Glo luminescence, cherry-picks (AID 1053115); format: functional, cell-based; settings: A549, 24 h
[4] = HEK293T cytotoxicity, dose response, cytotoxicity control for miR-122 modulator project, cell-based, activator set, cherry-pick (AID 720690); format: functional;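 also: HEK293T human cells scored for general mammalian cytotoxicity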
[5] = cytotoxicity in OVCAR8 ovarian cancer cells, dose response, PAX8 project, cell-based, plate reader, dry powder samples (AID 743197); format: functional; settings: OVCAR-8
[6] = NIH:OVCAR-3 ovarian cancer cell cytotoxicity, dose response, PAX8 inhibitor project, plate reader, dry powder samples (AID 743044); format: functional, cell-based
[7] = HEK293T cytotoxicity, dose response, cytotoxicity control for miR-122 modulator project, cell-based, inhibitor set, cherry-pick, set 2 (AID 720697); format: functional
[8] = IOSE-T80 ovarian epithelial cell cytotoxicity, dose response, cytotoxicity control for PAX8 inhibitor project, plate reader, dry powder samples (AID 743045); format: functional, cell-based
[9] = A549 cell cytotoxicity, dose response, CellTiter-Glo luminescence, dry powder, set 17 (AID 1117284); format: functional, cell-based
[10] = IGROV1 ovarian cancer cell cytotoxicity, dose response, PAX8 inhibitor project, plate reader, dry powder samples (AID 743043); format: functional, cell-based; settings: IGROV-1
[11] = biological target: T2, Oxysterols receptor LXR-beta (Homo sapiens, UniProt P55055); experiment: LXR agonists, Gal4 luciferase reporter, dose response, counter-screen for ssDAF-12 agonist project, cell-based, luminescence, HEK293, S. stercoralis campaign (AID 720737); format: functional; settings: read-out: IC50 (the source's name)
T2 sequence (P55055 whole entry): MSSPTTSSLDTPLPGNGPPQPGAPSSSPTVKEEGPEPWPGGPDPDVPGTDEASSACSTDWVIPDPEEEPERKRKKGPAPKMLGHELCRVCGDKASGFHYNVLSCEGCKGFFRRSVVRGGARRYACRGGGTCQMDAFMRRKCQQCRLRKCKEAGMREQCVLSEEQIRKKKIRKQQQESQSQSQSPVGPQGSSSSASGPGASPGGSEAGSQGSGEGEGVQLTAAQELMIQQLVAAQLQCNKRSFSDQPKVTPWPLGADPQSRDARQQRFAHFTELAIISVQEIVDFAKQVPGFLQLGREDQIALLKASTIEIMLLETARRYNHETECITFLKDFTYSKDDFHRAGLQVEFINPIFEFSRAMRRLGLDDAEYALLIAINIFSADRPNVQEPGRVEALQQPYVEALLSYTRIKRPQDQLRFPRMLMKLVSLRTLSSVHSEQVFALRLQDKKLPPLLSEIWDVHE

[12] = Luminescence-based cell-based high throughput dose response assay to identify activators of the DAF-12 from the parasite S. stercoralis (ssDAF-12).; format: functional
[13] = TB:CFU starved Measured in Microorganism System Using Imaging - 7108-06_Inhibitor_Dose_DryPowder_Activity_Set2.; format: functional
[14] = biological target: Glutathione-S-transferase (Schistosoma japonicum, UniProt Q26513); experiment: biotin-GST/anti-GST TR-FRET signal inhibitors, dose response, artefact control for Vif-APOBEC3G degradation inhibitor project, biochemical (AID 1117362); format: functional
[15] = THP-1 cell cytotoxicity, dose response, cytotoxicity control for Vif-APOBEC3G degradation inhibitor project, THP-1 cells (AID 1117359); format: functional; settings: Human immunodeficiency virus 1, THP-1
Vero = Vero cell cytotoxicity, cytotoxicity control for flavivirus capping enzyme inhibitors (AID 588742); format: functional; settings: Chlorocebus sabaeus

Sequence of Glutathione-S-transferase (Q26513 whole entry): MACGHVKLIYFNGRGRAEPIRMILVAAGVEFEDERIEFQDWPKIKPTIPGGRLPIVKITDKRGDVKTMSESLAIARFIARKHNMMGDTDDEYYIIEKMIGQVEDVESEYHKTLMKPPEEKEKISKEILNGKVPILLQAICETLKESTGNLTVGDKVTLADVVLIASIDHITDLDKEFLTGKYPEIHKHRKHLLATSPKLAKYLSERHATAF
Sequence of Cytochrome P450 2C19 (P33261 whole entry): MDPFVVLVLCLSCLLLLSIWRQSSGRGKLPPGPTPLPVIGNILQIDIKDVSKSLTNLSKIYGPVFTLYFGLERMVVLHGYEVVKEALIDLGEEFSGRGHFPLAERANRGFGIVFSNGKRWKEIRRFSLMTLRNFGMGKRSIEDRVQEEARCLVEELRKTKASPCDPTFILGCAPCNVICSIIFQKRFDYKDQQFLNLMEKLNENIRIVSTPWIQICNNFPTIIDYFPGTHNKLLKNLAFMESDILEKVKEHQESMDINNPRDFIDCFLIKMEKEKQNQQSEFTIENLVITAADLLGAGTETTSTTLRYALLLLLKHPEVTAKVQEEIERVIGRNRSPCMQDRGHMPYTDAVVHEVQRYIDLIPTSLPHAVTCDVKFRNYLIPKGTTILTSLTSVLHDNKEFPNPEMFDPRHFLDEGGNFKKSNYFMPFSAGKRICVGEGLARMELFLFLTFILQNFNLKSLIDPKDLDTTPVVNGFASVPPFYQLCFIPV
Sequence of Paired box protein Pax-8 (Q06710 whole entry): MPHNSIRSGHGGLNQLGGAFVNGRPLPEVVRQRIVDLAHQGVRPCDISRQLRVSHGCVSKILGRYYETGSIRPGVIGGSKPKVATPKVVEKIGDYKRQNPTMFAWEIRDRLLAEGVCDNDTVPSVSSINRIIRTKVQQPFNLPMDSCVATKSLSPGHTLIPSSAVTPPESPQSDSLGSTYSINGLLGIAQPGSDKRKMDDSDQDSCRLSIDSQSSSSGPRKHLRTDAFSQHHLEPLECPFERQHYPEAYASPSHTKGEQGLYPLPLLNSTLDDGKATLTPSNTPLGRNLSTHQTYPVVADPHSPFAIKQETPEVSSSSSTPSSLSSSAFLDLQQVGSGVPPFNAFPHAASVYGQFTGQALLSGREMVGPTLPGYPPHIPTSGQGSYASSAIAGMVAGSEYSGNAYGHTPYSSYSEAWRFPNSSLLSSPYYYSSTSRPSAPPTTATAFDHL

SMILES: CCCCC1(C)NC(=O)c2c(C)sc(C(=O)OCC)c2N1 (centres undefined)
- AC50 (Cytochrome P450 2C19): 2.24 µM (inconclusive)
- IC50 [1]: > 83.3 µM (inactive)
- AC50 (Cytochrome P450 1A2): 14.1 µM (inconclusive)
- IC50 [2]: > 109 µM (inactive)

SMILES: C[C@H](O)C#Cc1ccc2c(c1)O[C@H](CN(C)Cc1ccc(-c3ccccc3)cc1)[C@@H](C)CN([C@@H](C)CO)S2(=O)=O
- AC50 (Paired box protein Pax-8): 3.42 µM (active)
- AC50 [3]: > 60 µM (inactive)
- AC50 [4]: 15.2 µM (active)
- AC50 [5]: 43.2 µM (active)
- AC50 [6]: 10.7 µM (active)
- AC50 [7]: 1.58 µM (active)
- AC50 [8]: 3.37 µM (active)
- AC50 [9]: 37.9 µM (active)
- AC50 [10]: 15.9 µM (active)

SMILES: C(=N\Nc1nc2ccccc2s1)/c1cccs1
- EC50 [11]: > 67.5 µM (inactive)
- IC50 [12]: > 67.5 µM (inactive)

SMILES: CCn1c(NC(=O)c2cccnc2O)nc2ccccc21
- AbsAC90 [13]: 89.33 µM

SMILES: CC[n+]1c(/C=C2/C=C(C)CC(C)(C)C2)sc2ccc(OC)cc21
- IC50 [14]: > 100 µM (active)
- CC50 [15]: 4.13 µM (active)
- CC50 (Vero): > 40 µM (active)
